Entries after “also recorded” stand apart in the source; their conditions may differ.
Experiments:
Type in all cases: in vivo
[1] = system: male DbDb Lep-deficient mice; assay: Db/Db Study 1: blood glucose after insulin and/or Compound 102
Description: In the present study, male DbDb Lep-deficient mice (Harlan Laboratories) approximately 16 weeks of age were used. [table] Procedure: Mice were divided into 4 groups of 6 mice per group. Blood glucose levels were measured using Accu-Chek Aviva Glucometers (Roche Diagnostics). The times of blood glucose levels were measured up to 72 hours after administration. Glucometers were calibrated prior to each study. […] Glucose levels are reported as mg/dL. In study 1, animals were fasted for 4 hours prior to the administration of test articles and then continuously fasted through to the 8-hour time point. Animals were then provided food ad libitum until 4-hour prior to the 28-hour time point at which point they were fasted until the last blood glucose measurement time point. Data are expressed as the average±SEM. Data were analyzed by two-way ANOVA followed by post-hoc Bonferroni test. N=6/group.

[2] = system: male DbDb Lep-deficient mice; assay: Db/Db Study 2: blood glucose 24-72 hours after insulin and/or Compound 102; settings: for blood glucose levels compared with vehicle controls: twenty-four hours after administration alone, insulin 1.5 units/kg or Compound 102 100 mg/kg, 18 week old db/db mice
Description: In the present study, male DbDb Lep-deficient mice (Harlan Laboratories) approximately 18 weeks of age were used. [table] Procedure: Mice were divided into 4 groups of 6 mice per group. Blood glucose levels were measured using Accu-Chek Aviva Glucometers (Roche Diagnostics). The times of blood glucose levels were measured up to 72 hours after administration. Glucometers were calibrated prior to each study. […] Glucose levels are reported as mg/dL. In study 2, animals were fasted for 4 hours prior to each blood glucose measurement time point and then returned to ad libitum food. Data are expressed as the average±SEM. Data were analyzed by two-way ANOVA followed by post-hoc Bonferroni test. N=6/group Results: A second study was conducted to repeat the findings of Compound 102 effects on insulin action in the 24-72 hours time window and specifically to follow the insulin/Compound 102 combination effect through until it returned to normal levels (i.e., that of vehicle-treated animals). In the second study, there were three differences from the first: 1) mice were 18 weeks of age at the time of study, 2) the insulin dose-level was reduced from 3 to 1.5 U/kg and 3) blood glucose levels were measured out until 72 hours after administration.

[3] = system: streptozocin Type I diabetic male CD-1: ICR mice; assay: Streptozocin Type I diabetic mice, insulin tolerance test, blood glucose
Description: In the present study, male CD-1: ICR mice (Charles River) approximately 8 weeks of age were used. Streptozocin administration to mice destroys pancreatic β-cells and is used to produce a model of Type I diabetes. In response to loss of pancreatic β-cells, mice become hyperglycemic. These mice are insulin responsive.
Streptozocin administration: Streptozocin administration to mice was conducted by a standard method. Briefly, mice were administered STZ at a dose-level of 70 mg/kg on day 1, 3 and 8. Each administration was preceded by an 18 hour fast. Mice were administered insulin (0.5 U) on days 2 and 9. On day 11, blood glucose levels were measured. Mice with blood glucose levels less than 300 mg/dL were excluded from the study. Mice were randomized to treatment groups.
Mice were tested on the insulin tolerance test on day 14 after the initial STZ administration. Mice were administered insulin (0.35U s.c.) and then 30 minutes later administered Compound 102 (100 mg/kg i.p.).
Blood glucose was measured 5, 15, 30, 60, 90, 120, 180, 240, 360, and 480 minutes after Compound 102 or vehicle administration. Blood was collected from a tail snip and drop of blood measured for glucose levels by glucometer (Accu-Chek Aviva Glucometers; Roche Diagnostics).
Data are expressed as the average±SEM. Data were analyzed by two-way ANOVA followed by post-hoc Bonferroni test. N=6/group

Compound | effect on blood glucose levels ([1]; Compound 102 100 mg/kg alone, 100 mg/kg) | blood glucose levels compared with vehicle controls [2] | effect on insulin action / insulin-mediated blood glucose lowering ([3]; Compound 102 100 mg/kg i.p. 30 minutes after insulin, p<0.05, p<0.001 versus insulin alone, FIG. 3, 100 mg/kg) | insulin-mediated blood glucose reduction to ([3]; Compound 102 100 mg/kg i.p. administered 30 minutes after insulin (0.35)) | effect on blood glucose levels ([3]; Compound 102 100 mg/kg i.p. alone, insulin depleted mice, up to 6 hours, 100 mg/kg) | blood glucose levels still reduced up to ([3]; Compound 102 100 mg/kg i.p. in combination with insulin, time after administration) | time by which blood glucose levels returned to baseline levels ([1]; insulin 3 units/kg alone) | blood glucose levels ([1]; insulin 3 units/kg alone, three hours after administration, fasted 16 week old db/db mice, baseline averaged 482 mg/dL) | blood glucose in the insulin treated group ([2]; insulin 1.5 units/kg alone, 24-72 hours window (elevation at 24 and 36 hour time points, rebound effect)) | blood glucose levels ([3]; insulin alone (0.35), 90 minutes after administration, baseline 546 mg/dL) | time at which blood glucose levels returned to baseline levels ([3]; insulin alone (0.35), after administration)
Cc1cccc(Oc2cnc(=O)[nH]c2)c1 [Compound 102] | did not significantly affect blood glucose levels at any time point after administration; also recorded: Small, but statistically insignificant lowering of blood glucose | not different from vehicle controls | potentiated the insulin effect; also recorded: potentiated and prolonged the actions of insulin; also recorded: potentiated and prolonged insulin-mediated blood glucose lowering | 157 mg/dL | did not affect blood glucose levels at any time point up to 6 hours after administration | up to 6 hours | – | – | – | – | –
Insulin [reference compound] | – | not different from vehicle controls | – | – | – | – | ≤ 8 h | 166.5 mg/dL | does not show blood glucose lowering; also recorded: slightly elevated blood glucose | 263 mg/dL | 4.5 h
